In US20240374739A1, “BILE ACID CONJUGATE” (Curtin University, priority 2021, published 2024):

Tests used:
OC-1 cells [1] = assay: Seahorse bioenergetics experiment (oxygen consumption rate) after cisplatin; format: cell-based
Experimental: Mitochondrial function was analysed by measuring oxygen consumption rate (OCR) using real-time Seahorse Flux Analyser XF 96 (Seahorse Bioscience, USA) with our well-established method (Kovacevic, Bozica, et al. “Novel hydrogel comprising non-ionic copolymer with various concentrations of pharmacologically active bile acids for cellular injectable gel.” Colloids and Surfaces B: Biointerfaces (2022): 113014). Briefly, the first injection was with media without glucose, with subsequent ATP synthase inhibitor oligomycin and FCCP (carbonyl cyanide-p-trifluoromethoxy phenylhydrazone) and the final injection was complex […] inhibitors Rotenone+antimycin A 77. The result was automatically generated and analysed by the wave software. The OC-1 cells were pre-treated with cisplatin at three different concentrations (20, 30 and 40 μM) for 24 or 48 hours to induce cytotoxicity prior to the seahorse bioenergetics assays.

OC-1 cells [2] = assay: Cobalt chloride hypoxia assay; format: cell-based; settings: cells pre-treated with CoCl2 at 100 μM for 24 hours, microscopic examination
Experimental: This assay is used to determine whether an intervention can reverse hypoxic-induced cell death brought about by cobalt chloride. For this assay, cells are pre-treated with CoCl2 at 100 μM for 24 hours, followed by microscopic examination of cell morphology and viability.

Caspase 3/9 protein = assay: Caspase assay; format: cell-based; settings: OC-1 cells under stressful, toxic conditions (FIG. 31)
Experimental: The caspase assay was carried as per manufacturer's instructions (abcam, NSW, Australia), as described below.
• Collagen coated cover slip • Fixing agent: 4% paraformaldehyde • Permeabilization agent 0.5% of Tween 20 or trition-X 100 diluted in PBS • Blocking: 1% BSA in PBST may also be used. • PBST: 0.1% Tween 20 in PBS • Primary abs (1:500 in PBS) • Secondary abs (1:1000 in PBS) • Hoechst (Nuclear stain)
First day: Fixation, permeabilize, blocking and add a primary antibody to the cells, as described below:
• Start by aspirating culture medium from each well followed by fixation of the cells with 4% Using 4% paraformaldehyde in PBS pH 7.4 for 10 min at room temperature. (Add one ml in each well). • Shake a plate for a few seconds.
0.5% of Tween 20 or trition-X 100 diluted in PBS. […]
• Make coverslips ready to be mounted onto microscope slides. • Take a clean slide and dispense one drop of antifade mounting medium by slowly from the pipette into the slide. • Carefully remove a coverslip from the well and allow excess wash to drip off and place the cells face down onto the slide. • Clear fingernail polish can be used to seal the coverslip and prevent it from drying out. • Visualized slide under microscope. […]

[3] = test system: Neurodegenerated cells (Parkinson's disease model); assay: Immunocytochemical localization of PD specific and neuronal markers; format: cell-based, human; settings: fluorescence micrographs
Experimental: (§1) Perinatal tissue derived human stem cell model for Parkinson's disease (PD) was prepared using proprietary protocols to test the effect of new drug entities. Drug treatment was for 24 hours in all the assays.
For further confirmation and protein localization of neuronal, dopaminergic and PD specific neurodegenerative markers, we performed immunolocalization for synapsin I, Nurr1, TH and α-synuclein respectively.
Fluorescence micrographs of synapsin 1 positive neuronal cells were obtained and the effects of probucol, SPQ and HA-1 on neurodegeneration model with L-Dopa as positive control were compared.
Fluorescence micrographs of Nurr1 positive dopaminergic neuronal cells were obtained and the effects of probucol, SPQ and HA-1 on neurodegeneration model with L-Dopa as positive control were compared.
Fluorescence micrographs of TH positive dopaminergic neuronal cells were obtained and the effects of probucol, SPQ and HA-1 on neurodegeneration model with L-Dopa as positive control were compared.
Fluorescence micrographs of α-synuclein immunolocalization were obtained and the effects of probucol, SPQ and HA-1 on neurodegeneration model with L-Dopa as positive control were compared.

[4] = test system: Neurodegenerated cells (Parkinson's disease model); assay: Adenosine triphosphate (ATP) assay, Parkinson's disease model; format: cell-based, human; settings: PD model; probucol 20 μM, SPQ 10 μM, HA-1 10 μM, L-Dopa 50 μM, 24 hours
Experimental: as §1
Impaired energy metabolism and reduced ATP levels are common features of PD. Using the stem cell derived PD model, we measured ATP levels in drug treated (probucol, SPQ and HA-1 and L-Dopa) cells and compared with neurodegenerated (ND) cells.
(§2) Neurodegenerated cells were incubated with probucol (20 μM), SPQ (10 μM), HA-1 (10 μM) and L-Dopa (50 μM) for 24 hours (p<0.05; *p<0.05, **p<0.001, ***p<0.0001, ns=non-significant, n=3).

[5] = test system: Neurodegenerated cells (Parkinson's disease model); assay: Glutathione peroxidase / GSH activity, Parkinson's disease model; format: cell-based, human; settings: PD model; vs neurodegeneration
Experimental: as §1
Parkinson's disease-related increase in oxidative stress is associated with mitochondrial dysfunction and subsequent decrease in the levels of brain antioxidant glutathione (GSH).
(Statistical analysis: Results are expressed in mean±SD. One-way ANOVA followed by Dunnett's post hoc test was performed to compare all columns vs neurodegeneration (p<0.05; *p<0.05, **p<0.001, ***p<0.0001, ns=non-significant, n=3).)

[6] = test system: Neurodegenerated cells (Parkinson's disease model); assay: Greiss (nitric oxide) assay, Parkinson's disease model; format: cell-based, human; settings: PD model
Experimental: as §1
(§3) Increase in oxidative stress associated with accumulation of α-synuclein plays a central role in disease progression. Nitric oxide enhances the aggregation of α-synuclein and accelerates disease progression. Increased oxidative stress and nitric oxide levels lead to apoptosis and evoke cytotoxic effects on neurons.

[7] = test system: Neurodegenerated cells (perinatal tissue derived human stem cell model for Parkinson's disease); assay: Mitochondrial membrane potential by TMRE assay, Parkinson's disease model; format: cell-based; settings: PD model; probucol 20 μM, SPQ 10 μM, HA-1 10 μM, L-Dopa 50 μM, 24 hours
Experimental: as §1
Dysfunctional mitochondria and alterations in the mitochondrial membrane potential promote neurodegeneration seen in Parkinson's disease. For assessing the changes in mitochondrial membrane potential, we used TMRE (tetramethylrhodamine ethyl ester) to quantify the changes in live cells by fluorimetry.
as §2

[8] = test system: Neurodegenerated cells (Parkinson's disease model); assay: ROS assay, Parkinson's disease model; format: cell-based, human; settings: PD model
Experimental: as §1, §3

[9] = test system: Neurodegenerated cells (Parkinson's disease model); assay: Gene expression analysis by qRT-PCR for neuronal, dopaminergic and PD associated markers; format: cell-based, human; settings: 24 hours drug treatment
Experimental: as §1
Gene expression levels of mature neuronal marker (Synapsin I), dopaminergic markers (Nuclear receptor related 1 (Nurr1), Dopamine transporter (DAT) and Tyrosine hydroxylase (TH)), and PD associated marker (α-synuclein) were analysed to determine the effect of probucol, SPQ, HA-1 and L-Dopa.
(A) Synapsin I, (B) Nurr1, (C) DAT, (D) TH and (E) α-synuclein. (p<0.05; *p<0.05, **p<0.001, ***p<0.0001, n=3).

[10] = test system: Neurodegenerated cells (Alzheimer's disease model); assay: Mitochondrial membrane potential by TMRE assay, Alzheimer's disease model; format: cell-based, human; settings: AD model; probucol 20 μM, SPQ 10 μM, HA-1 10 μM, rivastigmine 2 μM, 24 hours
Experimental: (§4) Perinatal tissue derived human stem cell model for Alzheimer's disease (AD) was prepared using proprietary protocols to test the effect of new drug entities. Drug treatment was for 24 h in all the assays.
Aβ plaques are sources of toxicity that lead to severe structural and functional abnormalities in mitochondria in Alzheimer's disease. For assessing the changes in the electrophysiology and functional changes in the mitochondrial membrane potential, we used TMRE (tetramethylrhodamine ethyl ester) for quantifying changes in mitochondrial membrane potential in live cells by fluorimetry.

[11] = test system: Neurodegenerated cells (Alzheimer's disease model); assay: Glutathione peroxidase / GSH activity, Alzheimer's disease model; format: cell-based, human; settings: AD model; vs neurodegeneration
Experimental: as §4
Alzheimer's disease-related increase in oxidative stress is associated with decrease in the levels of brain antioxidant glutathione (GSH).
(Statistical analysis: results are expressed in mean±SD. One-way ANOVA followed by Dunnett's post hoc test was performed to compare all columns vs neurodegeneration (p<0.05; *p<0.05, **p<0.001, ***p<0.0001, ns=non-significant, n=3).)

[12] = test system: Neurodegenerated cells (Alzheimer's disease model); assay: Immunocytochemical localization of AD specific and neuronal markers; format: cell-based, human; settings: fluorescence micrographs
Experimental: as §4
For further confirmation and protein localization of the AD specific neurodegenerative markers and neuronal markers, we performed immunolocalization for BACE1 and synapsin respectively.
Fluorescence micrographs of BACE1 positive neuronal cells were obtained and the effects of probucol, SPQ and HA-1 on neurodegeneration model were compared. […] In the AD model, as expected BACE1 accumulation is clearly pronounced.
In the case of synapsin 1, a disruption in expression of synapsin protein in ND cells was observed.

[13] = test system: Neurodegenerated cells (perinatal tissue derived human stem cell model for Alzheimer's disease); assay: Lactate dehydrogenase (LDH) assay, in vitro model of Alzheimer's disease; format: cell-based; settings: probucol 20 μM, SPQ 10 μM, HA-1 10 μM, rivastigmine 2 μM, 24 hours; compared to ND cells
Experimental: as §4
LDH leakage is a well characterised marker of cellular membrane damage and increase in indicative of lactate deficit, is a hallmark of AD.

[14] = test system: Neurodegenerated cells (Alzheimer's disease model); assay: Gene expression analysis by qRT-PCR for neuronal, cholinergic and AD associated markers; format: cell-based, human; settings: 24 h drug treatment
Experimental: as §4
For determining the expression of genes involved in AD specific neurodegeneration and neuronal markers, we analysed BACE and chAT (AD and cholinergic markers) and synapsin 1 and neuropilin (neuronal markers).

[15] = test system: Neurodegenerated cells (Alzheimer's disease model); assay: ROS (reactive oxygen species) assay, Alzheimer's disease model; format: cell-based, human; settings: AD model
Experimental: as §4
(§5) Increase in oxidative stress is associated with accumulation of amyloid beta seen in the AD model. Increased oxidative stress and nitric oxide levels lead to apoptosis and evoke cytotoxic effects on neurons.

[16] = test system: Neurodegenerated cells (Alzheimer's disease model); assay: Greiss (nitric oxide) assay, Alzheimer's disease model; format: cell-based, human; settings: AD model
Experimental: as §4, §5

## CC(=O)O[C@@H]1CC[C@@]2(C)C(C1)C[C@@H](OC(C)=O)[C@H]1[C@@H]3CC[C@H]([C@H](C)CCC(=O)Oc4c(C(C)(C)C)cc(SC(C)(C)Sc5cc(C(C)(C)C)c(O)c(C(C)(C)C)c5)cc4C(C)(C)C)[C@@]3(C)CC[C@@H]12 (stereo in doubt) [HA-2, 2,6-di-tert-butyl-4-((2-((3,5-di-tert-butyl-4-hydroxyphenyl)thio)propan-2-yl)thio)phenyl (4R)-4-[(3R,5R,7R,8R,9S,10S,13R,14S,17R)-3,7-diacetoxy-10,13-dimethyl-2,3,4,5,6,7,8,9,11,12,14,15,16,17-tetradecahydro-1H-cyclopenta[a]phenanthren-17-yl]pentanoate]
OC-1 cells [1]; OC-1 cells after 24 hours exposure to cisplatin (20, 30 and 40 μM)
  oxygen consumption rate (OCR): most potent in reversing the cisplatin-induced cytotoxicity
OC-1 cells [1]; OC-1 cells after 48 hours exposure to cisplatin (20, 30 and 40 μM)
  oxygen consumption rate (OCR): significantly reverse the cytotoxic effects of cisplatin
OC-1 cells [2]
  cell morphology: optimal morphology
Caspase 3/9 protein
  protection against programmed cell death (caspase-3 activation) / viable cell population: least amount of cell death

## N[C@@H](Cc1ccc(O)c(O)c1)C(=O)O [L-Dopa, Levodopa]
[3]
  accumulation of α-synuclein (immunolocalization): least expression
[4]
  ATP level: Enhanced increase in ATP levels
[5]
  glutathione (GSH) activity: increase in the GSH activity
[6]
  nitric oxide level: reduction of ROS and NO levels
[7]
  mitochondrial membrane potential (TMRE): maintain the mitochondrial membrane potential
[8]
  intracellular reactive oxidative stress (ROS): reduction of ROS and NO levels
[9]
  TH gene expression (qRT-PCR): clearly upregulated

## CCN(C)C(=O)Oc1cccc([C@H](C)N(C)C)c1 [rivastigmine]
[10]
  mitochondrial membrane potential (TMRE): maintain the mitochondrial membrane potential
[11]
  glutathione (GSH) activity: increase in the anti-oxidant GSH activity
[12]
  accumulation of BACE1 protein (immunolocalization): least expression
[13]
  LDH activity / LDH release: decreased significantly LDH activity
[14]
  BACE1 gene expression (qRT-PCR): decrease the level of beta secretase 1 (BACE1)
  ChAT gene expression (qRT-PCR): increase the level of choline acetyltransferase (ChAT)
[15]
  intracellular reactive oxidative stress (ROS): reduction of ROS and NO levels
[16]
  nitric oxide level: reduction of ROS and NO levels
